Measurements as given in US9006451B1, “2-anilinonicotinyl based chalcones useful as potential anticancer agents and process for preparation thereof” (Council of Scientific and Industrial Research, priority 2013, dated 2015).
Read-outs that look alike come from different tables or passages of the source.

How the values were obtained:
Type in all cases: cell-based
CCRF-CEM = experiment: NCI 60 human tumor cell line screen (SRB): CCRF-CEM; conditions: Leukemia, 48 hours, read-out: GI50 values (μM conc.)
Procedure: (§1) The in vitro anticancer activity studies for these chalcone analogues were carried out at the National Cancer Institute, USA.
(§2) The chalcone compounds have been tested at NCI, USA, against sixty human tumor cell lines derived from nine cancer types (leukemia, non-small cell lung cancer, colon cancer, CNS cancer, melanoma cancer, ovarian cancer, renal cancer, prostate cancer and breast cancer). For these compounds results are expressed as growth inhibition (GI50) values as per NCI protocol.
(§3) We describe here the development and implementation of a pilot-scale, in vitro, anticancer drug screen utilizing a panel of 60 human tumor cell lines organized into subpanels representing leukemia, melanoma, and cancers of the lung, colon, kidney, ovary, and central nervous system. The ultimate goal of this disease-oriented screen is to facilitate the discovery of new compounds with potential cell line-specific and/or subpanel-specific antitumor activity. In the current screening protocol, each cell line is inoculated onto microtiter plates, then preincubated for 28 hours. Subsequently, test agents are added in five 10-fold dilutions and the culture is incubated for an additional 48 hours. For each test agent, a dose-response profile is generated. End-point determinations of the cell viability or cell growth are performed by in situ fixation of cells, followed by staining with a protein-binding dye, sulforhodamine B (SRB). The SRB binds to the basic amino acids of cellular macromolecules; the solubilized stain is measured spectrophotometrically to determine relative cell growth or viability in treated and untreated cells.

RPMI-8226 = experiment: NCI 60 human tumor cell line screen (SRB): RPMI-8226; conditions: RPMI-8226, Leukemia, 48 hours, read-out: GI50 values (μM conc.)
Procedure: as §1, §2, §3

HOP-62 = experiment: NCI 60 human tumor cell line screen (SRB): HOP-62; conditions: HOP-62, Non-small cell lung, 48 hours, read-out: GI50 values (μM conc.)
Procedure: as §1, §2, §3

HOP-92 = experiment: NCI 60 human tumor cell line screen (SRB): HOP-92; conditions: HOP-92, Non-small cell lung, 48 hours, read-out: GI50 values (μM conc.)
Procedure: as §1, §2, §3

NCI-H322M = experiment: NCI 60 human tumor cell line screen (SRB): NCI-H322M; conditions: Non-small cell lung, 48 hours, read-out: GI50 values (μM conc.)
Procedure: as §1, §2, §3

NCI-H522 = experiment: NCI 60 human tumor cell line screen (SRB): NCI-H522; conditions: NCI-H522, Non-small cell lung, 48 hours, read-out: GI50 values (μM conc.)
Procedure: as §1, §2, §3

HCT-116 = experiment: NCI 60 human tumor cell line screen (SRB): HCT-116; conditions: HCT-116, Colon, 48 hours, read-out: GI50 values (μM conc.)
Procedure: as §1, §2, §3

KM12 = experiment: NCI 60 human tumor cell line screen (SRB): KM12; conditions: KM12, Colon, 48 hours, read-out: GI50 values (μM conc.)
Procedure: as §1, §2, §3

SF-268 = experiment: NCI 60 human tumor cell line screen (SRB): SF-268; conditions: SF-268, CNS, 48 hours, read-out: GI50 values (μM conc.)
Procedure: as §1, §2, §3

SF-539 = experiment: NCI 60 human tumor cell line screen (SRB): SF-539; conditions: SF-539, CNS, 48 hours, read-out: GI50 values (μM conc.)
Procedure: as §1, §2, §3

SNB-19 = experiment: NCI 60 human tumor cell line screen (SRB): SNB-19; conditions: SNB-19, CNS, 48 hours, read-out: GI50 values (μM conc.)
Procedure: as §1, §2, §3

SNB-75 = experiment: NCI 60 human tumor cell line screen (SRB): SNB-75; conditions: SNB-75, CNS, 48 hours, read-out: GI50 values (μM conc.)
Procedure: as §1, §2, §3

U251 = experiment: NCI 60 human tumor cell line screen (SRB): U251; conditions: U-251, U251, CNS, 48 hours, read-out: GI50 values (μM conc.)
Procedure: as §1, §2, §3

LOX IMVI = experiment: NCI 60 human tumor cell line screen (SRB): LOX IMVI; conditions: Melanoma, 48 hours, read-out: GI50 values (μM conc.)
Procedure: as §1, §2, §3

MALME-3M = experiment: NCI 60 human tumor cell line screen (SRB): MALME-3M; conditions: Melanoma, 48 hours, read-out: GI50 values (μM conc.)
Procedure: as §1, §2, §3

UACC-257 = experiment: NCI 60 human tumor cell line screen (SRB): UACC-257; conditions: UACC-257, Melanoma, 48 hours, read-out: GI50 values (μM conc.)
Procedure: as §1, §2, §3

OVCAR-3 = experiment: NCI 60 human tumor cell line screen (SRB): OVCAR-3; conditions: OVCAR-3, Ovarian, 48 hours, read-out: GI50 values (μM conc.)
Procedure: as §1, §2, §3

OVCAR-4 = experiment: NCI 60 human tumor cell line screen (SRB): OVCAR-4; conditions: OVCAR-4, Ovarian, 48 hours, read-out: GI50 values (μM conc.)
Procedure: as §1, §2, §3

OVCAR-5 = experiment: NCI 60 human tumor cell line screen (SRB): OVCAR-5; conditions: OVCAR-5, Ovarian, 48 hours, read-out: GI50 values (μM conc.)
Procedure: as §1, §2, §3

NCI/ADR-RES = experiment: NCI 60 human tumor cell line screen (SRB): NCI/ADR-RES; conditions: Ovarian, 48 hours, read-out: GI50 values (μM conc.)
Procedure: as §1, §2, §3

786-0 = experiment: NCI 60 human tumor cell line screen (SRB): 786-0; conditions: 786-0, Renal, 48 hours, read-out: GI50 values (μM conc.)
Procedure: as §1, §2, §3

ACHN = experiment: NCI 60 human tumor cell line screen (SRB): ACHN; conditions: Renal, 48 hours, read-out: GI50 values (μM conc.)
Procedure: as §1, §2, §3

CAKI-1 = experiment: NCI 60 human tumor cell line screen (SRB): CAKI-1; conditions: CAKI-1, Renal, 48 hours, read-out: GI50 values (μM conc.)
Procedure: as §1, §2, §3

RXF 393 = experiment: NCI 60 human tumor cell line screen (SRB): RXF 393; conditions: RXF 393, Renal, 48 hours, read-out: GI50 values (μM conc.)
Procedure: as §1, §2, §3

DU-145 = experiment: NCI 60 human tumor cell line screen (SRB): DU-145; conditions: DU-145, Prostate, 48 hours, read-out: GI50 values (μM conc.)
Procedure: as §1, §2, §3

MCF7 = experiment: NCI 60 human tumor cell line screen (SRB): MCF7
Procedure: as §1, §2, §3

HS 578T = experiment: NCI 60 human tumor cell line screen (SRB): HS 578T; conditions: Breast, 48 hours, read-out: GI50 values (μM conc.)
Procedure: as §1, §2, §3

BT-549 = experiment: NCI 60 human tumor cell line screen (SRB): BT-549; conditions: BT-549, Breast, 48 hours, read-out: GI50 values (μM conc.)
Procedure: as §1, §2, §3

T-47D = experiment: NCI 60 human tumor cell line screen (SRB): T-47D; conditions: T47D, Breast, 48 hours, read-out: GI50 values (μM conc.)
Procedure: as §1, §2, §3

[1] = MCF7, Breast, 48 hours, SRB, read-out: GI50 values (μM conc.)
[2] = MCF7, comparison table, read-out: GI50 μM in MCF7

Compound	GI50 (CCRF-CEM)	GI50 (RPMI-8226)	GI50 (HOP-62)	GI50 (HOP-92)	GI50 (NCI-H322M)	GI50 (NCI-H522)	GI50 (HCT-116)	GI50 (KM12)	GI50 (SF-268)	GI50 (SF-539)	GI50 (SNB-19)	GI50 (SNB-75)	GI50 (U251)	GI50 (LOX IMVI)	GI50 (MALME-3M)	GI50 (UACC-257)	GI50 (OVCAR-3)	GI50 (OVCAR-4)	GI50 (OVCAR-5)	GI50 (NCI/ADR-RES)	further results
COc1cc(/C=C/C(=O)c2cccnc2Nc2ccc(F)cc2)cc(OC)c1OC [7f, (E)-1-(2-(4-Fluorophenylamino)pyridin-3-yl)-3-(3,4,5-trimethoxyphenyl)prop-2-en-1-one]	2.45 µM	2.43 µM	2.9 µM	1.67 µM	4.83 µM	2.69 µM	1.54 µM	3.72 µM	4.18 µM	2.85 µM	3.73 µM	1.93 µM	2.78 µM	1.69 µM	6.9 µM	2.9 µM	2.63 µM	3.81 µM	4.1 µM	2.37 µM	GI50 (786-0): 3.9 µM; GI50 (ACHN): 2.84 µM; GI50 (CAKI-1): 3.68 µM; GI50 (RXF 393): 2.81 µM; GI50 (DU-145): 3.32 µM; GI50 (MCF7; [1]): 2.44 µM; GI50 (MCF7; [2]): 2.44 µM; GI50 (HS 578T): 3.68 µM; GI50 (BT-549): 2.7 µM; GI50 (T-47D): 3.06 µM
COc1cc(C(=O)/C=C/c2cccnc2Nc2ccc(Cl)cc2)cc(OC)c1OC [6ax, (E)-3-(2-(4-Chlorophenylamino)pyridin-3-yl)-1-(3,4,5-trimethoxyphenyl)prop-2-en-1-one]	0.37 µM	0.65 µM	1.65 µM	0.51 µM	1.95 µM	1.46 µM	0.56 µM	1.83 µM	1.72 µM	1.71 µM	1.52 µM	1.63 µM	1.25 µM	1.27 µM	1.91 µM	1.5 µM	1.31 µM	1.51 µM	1.74 µM	1.64 µM	GI50 (786-0): 1.46 µM; GI50 (ACHN): 1.77 µM; GI50 (CAKI-1): 1.75 µM; GI50 (RXF 393): 1.26 µM; GI50 (DU-145): 1.63 µM; GI50 (MCF7; [1]): 1.02 µM; GI50 (MCF7; [2]): 1.02 µM; GI50 (HS 578T): 3.08 µM; GI50 (BT-549): 1.5 µM; GI50 (T-47D): 1.42 µM
COc1cc(C(=O)/C=C/c2cccnc2Nc2ccccc2)cc(OC)c1OC [6a, (E)-3-(2-(Phenylamino)pyridin-3-yl)-1-(3,4,5-trimethoxyphenyl)prop-2-en-1-one]	0.32 µM	0.35 µM	0.65 µM	0.39 µM	1.9 µM	0.49 µM	0.33 µM	0.92 µM	1.55 µM	1.65 µM	1.48 µM	1.13 µM	1.12 µM	0.49 µM	1.92 µM	1.51 µM	0.42 µM	1.45 µM	1.54 µM	1.03 µM	GI50 (786-0): 1.29 µM; GI50 (ACHN): 1.28 µM; GI50 (CAKI-1): 1.16 µM; GI50 (RXF 393): 1.12 µM; GI50 (DU-145): 0.72 µM; GI50 (MCF7; [1]): 0.35 µM; GI50 (MCF7; [2]): 0.35 µM; GI50 (HS 578T): 2.15 µM; GI50 (BT-549): 1.26 µM; GI50 (T-47D): 1.43 µM
COc1ccc(Nc2ncccc2/C=C/C(=O)c2cc(OC)c(OC)c(OC)c2)cc1 [6h, (E)-3-(2-(4-Methoxyphenylamino)pyridin-3-yl)-1-(3,4,5-trimethoxyphenyl)prop-2-en-1-one]	0.5 µM	1.08 µM	1.78 µM	1.59 µM	2.13 µM	0.36 µM	1.02 µM	1.69 µM	1.77 µM	2.04 µM	2.14 µM	1.15 µM	1.27 µM	1.23 µM	1.4 µM	1.53 µM	1.64 µM	1.62 µM	1.97 µM	2.23 µM	GI50 (786-0): 1.69 µM; GI50 (ACHN): 1.55 µM; GI50 (CAKI-1): 1.52 µM; GI50 (RXF 393): 1.49 µM; GI50 (DU-145): 1.59 µM; GI50 (MCF7; [1]): 0.69 µM; GI50 (MCF7; [2]): 0.69 µM; GI50 (HS 578T): 2.68 µM; GI50 (BT-549): 1.58 µM; GI50 (T-47D): 1.67 µM
COc1ccc(C(=O)/C=C/c2cccnc2Nc2cc(OC)c(OC)c(OC)c2)cc1 [6z, (E)-1-(4-Methoxyphenyl)-3-(2-(3,4,5-trimethoxyphenylamino)pyridin-3-yl)prop-2-en-1-one]	0.71 µM	0.85 µM	2.18 µM	2.4 µM	7.38 µM	1.33 µM	0.53 µM	0.46 µM	3.13 µM	1.81 µM	2.87 µM	2.44 µM	1.27 µM	1.12 µM	3.24 µM	3.63 µM	0.48 µM	1.78 µM	1.95 µM	1.38 µM	GI50 (786-0): 1.31 µM; GI50 (ACHN): 1.7 µM; GI50 (CAKI-1): 2.26 µM; GI50 (RXF 393): 1.68 µM; GI50 (DU-145): 2.59 µM; GI50 (MCF7; [1]): 0.18 µM; GI50 (MCF7; [2]): 0.18 µM; GI50 (HS 578T): 6.38 µM; GI50 (BT-549): 2.41 µM; GI50 (T-47D): 2.04 µM
COc1cc(Nc2ncccc2/C=C/C(=O)c2cc(OC)c(OC)c(OC)c2)cc(OC)c1OC [6v, (E)-1-(3,4,5-Trimethoxyphenyl)-3-(2-(3,4,5-trimethoxyphenylamino)pyridin-3-yl)prop-2-en-1-one]	7.08 µM	6.83 µM	12.1 µM	0.94 µM	21.1 µM	7.44 µM	3.77 µM	6.5 µM	8.19 µM	12.2 µM	6.8 µM	4.12 µM	4.1 µM	4.51 µM	15.3 µM	8.52 µM	7.45 µM	9.78 µM	16.3 µM	4.44 µM	GI50 (786-0): 5.98 µM; GI50 (ACHN): 5.34 µM; GI50 (CAKI-1): 4.01 µM; GI50 (RXF 393): 5.22 µM; GI50 (DU-145): 6.22 µM; GI50 (MCF7; [1]): 3.97 µM; GI50 (MCF7; [2]): 3.97 µM; GI50 (HS 578T): 13.2 µM; GI50 (BT-549): 14.3 µM; GI50 (T-47D): 5.3 µM
